Measured values: patent US20090306133A1, “New Acetyl Coenzyme A Carboxylase (ACC) Inhibitors And Uses In Treatments Of Obesity And Diabetes Mellitus - 087” (ASTRAZENECA AB, priority 2007, published 2009)

Assays:
[1] = molecular target: Human recombinant Acetyl-CoA Carboxylase 2 (ACC2) (Homo sapiens, UniProt O00763); assay: Assay Y: ACC2 inhibition, inorganic phosphate (Malachite Green); assay type: biochemical; settings: Assay Y: room temperature, 3 hr, 15 min preincubation
Procedure: (§1) Preincubation of 6 μL enzyme together with 0.3 μL compound for 15 min was done before the reaction was initiated by the addition of 4 μL substrate. […] After 3 hr the reaction was stopped by addition of 60 μL of water followed by 30 μL Malachite Green solution. The Malachite Green solution was prepared by mixing 16.4 mL ammonium molybdate solution (7.5%), 1.64 mL Tween (11%) with 82 mL Malachite Green/H2SO4-solution (0.7 g Malachite Green to 1000 mL of 10% (v/v) H2SO4). Plates were left for 10 min at room temperature before reading the absorbance at 670 nm. All compounds were tested in triplicate at 10 different concentrations. Control compound (0, 50 and 100% effect) was included on each plate. […] An IC50 value was derived by non-linear regression curve fitting using the following equation: […]))) where A is the non-specific binding, B is the total binding, C is the IC50 and D is the slope. Saturation binding Kd and Bmax were derived using the equation y=((B1 max*x)/(Kd+x)).

[2] = molecular target: Human recombinant Acetyl-CoA Carboxylase 1 (ACC1) (Homo sapiens, UniProt Q13085); assay: Assay Y: ACC1 inhibition, inorganic phosphate (Malachite Green); assay type: biochemical; settings: Assay Y: room temperature, 3 hr, 15 min preincubation
Procedure: as §1

Chain of Human recombinant Acetyl-CoA Carboxylase 2 (ACC2) (O00763 whole entry): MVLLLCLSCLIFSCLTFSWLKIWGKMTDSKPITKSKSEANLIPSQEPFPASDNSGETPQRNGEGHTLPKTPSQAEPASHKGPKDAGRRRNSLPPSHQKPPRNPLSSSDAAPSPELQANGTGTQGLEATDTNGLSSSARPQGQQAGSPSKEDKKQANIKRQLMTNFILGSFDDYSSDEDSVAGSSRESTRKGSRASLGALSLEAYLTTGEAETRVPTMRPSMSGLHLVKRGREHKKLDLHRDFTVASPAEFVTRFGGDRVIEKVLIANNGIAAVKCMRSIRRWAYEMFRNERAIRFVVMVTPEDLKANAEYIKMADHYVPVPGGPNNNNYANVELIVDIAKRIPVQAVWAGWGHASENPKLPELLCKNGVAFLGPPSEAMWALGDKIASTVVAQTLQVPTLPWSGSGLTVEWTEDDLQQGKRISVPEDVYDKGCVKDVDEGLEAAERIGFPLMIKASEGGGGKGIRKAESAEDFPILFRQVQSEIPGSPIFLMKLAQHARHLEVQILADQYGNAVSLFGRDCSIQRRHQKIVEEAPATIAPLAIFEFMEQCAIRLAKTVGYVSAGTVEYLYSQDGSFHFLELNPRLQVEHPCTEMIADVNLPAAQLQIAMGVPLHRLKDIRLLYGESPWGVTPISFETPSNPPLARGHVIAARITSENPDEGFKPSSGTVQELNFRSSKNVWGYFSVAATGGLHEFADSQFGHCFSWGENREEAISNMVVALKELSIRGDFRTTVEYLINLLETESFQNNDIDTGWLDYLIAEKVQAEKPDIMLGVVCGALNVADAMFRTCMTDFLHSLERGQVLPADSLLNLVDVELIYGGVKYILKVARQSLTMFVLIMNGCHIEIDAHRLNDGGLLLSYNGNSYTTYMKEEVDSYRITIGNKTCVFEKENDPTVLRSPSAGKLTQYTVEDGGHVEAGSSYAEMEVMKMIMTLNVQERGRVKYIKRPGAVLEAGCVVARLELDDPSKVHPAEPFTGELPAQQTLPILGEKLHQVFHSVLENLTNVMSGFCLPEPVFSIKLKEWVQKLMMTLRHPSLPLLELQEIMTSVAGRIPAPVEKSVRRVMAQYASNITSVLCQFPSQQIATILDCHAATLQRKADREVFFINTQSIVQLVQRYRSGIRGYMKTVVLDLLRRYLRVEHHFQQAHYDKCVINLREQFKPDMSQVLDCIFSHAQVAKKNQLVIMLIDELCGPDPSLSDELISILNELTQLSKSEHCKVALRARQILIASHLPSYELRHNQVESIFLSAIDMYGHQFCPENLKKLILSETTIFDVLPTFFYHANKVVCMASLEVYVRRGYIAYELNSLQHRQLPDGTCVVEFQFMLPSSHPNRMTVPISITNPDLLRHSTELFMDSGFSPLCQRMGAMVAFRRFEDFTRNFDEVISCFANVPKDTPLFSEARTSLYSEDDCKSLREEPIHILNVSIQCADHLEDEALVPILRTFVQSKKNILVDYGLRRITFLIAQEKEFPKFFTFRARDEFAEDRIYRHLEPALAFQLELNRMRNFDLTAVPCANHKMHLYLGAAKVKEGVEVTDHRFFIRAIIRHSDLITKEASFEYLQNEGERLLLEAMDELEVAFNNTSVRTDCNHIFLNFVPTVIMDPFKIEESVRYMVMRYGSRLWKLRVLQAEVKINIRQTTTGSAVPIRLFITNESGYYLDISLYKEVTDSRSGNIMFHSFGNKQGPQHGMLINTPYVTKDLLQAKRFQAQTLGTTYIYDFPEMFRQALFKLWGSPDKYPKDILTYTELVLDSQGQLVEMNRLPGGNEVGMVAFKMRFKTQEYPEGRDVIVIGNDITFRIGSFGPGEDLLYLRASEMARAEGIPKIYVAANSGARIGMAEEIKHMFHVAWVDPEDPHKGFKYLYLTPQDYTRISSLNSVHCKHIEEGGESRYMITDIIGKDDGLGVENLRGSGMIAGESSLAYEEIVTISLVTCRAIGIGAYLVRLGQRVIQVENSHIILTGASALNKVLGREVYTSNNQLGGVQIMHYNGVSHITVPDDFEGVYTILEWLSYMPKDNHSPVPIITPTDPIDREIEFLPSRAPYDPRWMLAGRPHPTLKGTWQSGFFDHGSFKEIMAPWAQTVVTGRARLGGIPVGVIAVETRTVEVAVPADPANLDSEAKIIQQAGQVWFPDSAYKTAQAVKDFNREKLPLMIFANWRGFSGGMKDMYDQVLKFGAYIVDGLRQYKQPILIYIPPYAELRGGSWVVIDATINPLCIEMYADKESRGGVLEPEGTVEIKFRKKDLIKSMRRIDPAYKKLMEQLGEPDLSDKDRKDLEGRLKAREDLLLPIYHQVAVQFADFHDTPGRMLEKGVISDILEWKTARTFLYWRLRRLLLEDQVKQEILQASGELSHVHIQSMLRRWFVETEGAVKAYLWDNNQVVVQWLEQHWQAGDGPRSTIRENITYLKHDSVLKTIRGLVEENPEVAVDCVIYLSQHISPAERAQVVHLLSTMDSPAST

IC50 [1] | IC50 [2] | Compound
1320 nM | 4250 nM | COCCOC(=O)NC[C@H]1CC[C@H](CNC(=O)c2cc(-c3ccc(N4CCN(C)CC4)nc3)nc3ccccc23)CC1 [Example 120, 2-Methoxyethyl[(trans-4-{[({2-[6-(4-methylpiperazin-1-yl)pyridin-3-yl]quinolin-4-yl}carbonyl)amino]methyl}cyclohexyl)methyl]carbamate]
6980 nM | > 20000 nM | CC(C)(C)OC(=O)NC[C@H]1CC[C@H](CN(CC(F)(F)F)S(=O)(=O)c2ccc3ccccc3c2)CC1 [Example 86, tert-Butyl [(trans-4-{[(2-naphthylsulfonyl)(2,2,2-trifluoroethyl)amino]methyl}cyclo-hexyl)methyl]carbamate]
20 nM | 220 nM | CC(C)(C)OC(=O)NC[C@H]1CC[C@H](CNC(=O)c2cc(-c3cccc(CN)c3)nc3ccccc23)CC1 [Example 39, tert-Butyl [(trans-4-{[({2-[3-(aminomethyl)phenyl]quinolin-4-yl}carbonyl)amino]-methyl}cyclohexyl)methyl]carbamate]
930 nM | 5470 nM | CC(C)(C)OC(=O)NC[C@H]1CC[C@H](CNC(=O)c2cc(-c3cc[n+]([O-])cc3)nc3ccccc23)CC1 [Example 94, tert-Butyl ({trans-4-[({[2-(1-oxidopyridin-4-yl)quinolin-4-yl]carbonyl}amino)methyl]-cyclohexyl}methyl)carbamate]
1170 nM | 6000 nM | CCOC(=O)NC[C@H]1CC[C@H](CNC(=O)c2cc(-c3ccc(C)cc3)nc3ccccc23)CC1 [Example 28, Ethyl ({trans-4-[({[2-(4-methylphenyl)quinolin-4-yl]carbonyl}amino)methyl]cyclo-hexyl}methyl)carbamate]
30 nM | 360 nM | CC(C)(C)OC(=O)NC[C@H]1CC[C@H](CNC(=O)c2cc(-c3ccc(NCCO)nc3)nc3ccccc23)CC1 [Example 143, tert-Butyl{[trans-4-({[(2-{6-[(2-hydroxyethyl)amino]pyridin-3-yl}quinolin-4-yl)carbonyl]amino}methyl)cyclohexyl]methyl}carbamate]
9870 nM | 7600 nM | COc1ccc(-c2cc(C(=O)NC[C@H]3CC[C@H](CNC(=O)OC(C)(C)C)CC3)ccn2)cn1 [Example 49, tert-Butyl {[trans-4-({[(6′-methoxy-2,3′-bipyridin-4-yl)carbonyl]amino}methyl)cyclohexyl]methyl}carbamate]
4350 nM | > 20000 nM | CC(C)(C)OC(=O)NC[C@H]1CC[C@H](CNC(=O)c2ccnc(-c3cc4ccccc4s3)c2)CC1 [Example 45, tert-Butyl {[trans-4-({[2-(1-benzothiophen-2-yl)isonicotinoyl]amino}methyl)cyclo-hexyl]methyl}carbamate]
4540 nM | 6630 nM | CC(C)(C)OC(=O)NC[C@H]1CC[C@H](CNC(=O)c2ccnc(-c3ccccc3)c2)CC1 [Example 41, tert-Butyl [(trans-4-{[(2-phenylisonicotinoyl)amino]methyl}cyclohexyl)methyl]-carbamate]
30 nM | 110 nM | CC(C)(C)OC(=O)NC[C@H]1CC[C@H](CNC(=O)c2cc(-c3ccc(CNC(N)=O)cc3)nc3ccccc23)CC1 [Example 105, tert-Butyl {[trans-4-({[(2-{4-[(carbamoylamino)methyl]phenyl}quinolin-4-yl)carbonyl]amino}methyl)cyclohexyl]methyl}carbamate]
1760 nM | 6430 nM | CN1CCN(CCOc2cc(C(=O)NC[C@H]3CC[C@H](CNC(=O)OC(C)(C)C)CC3)c3ccccc3n2)CC1 [Example 182, tert-Butyl[(trans-4-{[({2-[2-(4-methylpiperazin-1-yl)ethoxy]quinolin-4-yl}carbonyl)amino]methyl}cyclohexyl)methyl]carbamate]
380 nM | 3800 nM | CN1CCN(c2ccc(-c3cc(C(=O)N[C@H]4CC[C@H](CNC(=O)OC(C)(C)C)CC4)c4ccccc4n3)cn2)CC1 [Example 204, tert-Butyl ({trans-4-[({2-[6-(4-methylpiperazin-1-yl)pyridin-3-yl]quinolin-4-yl}carbonyl)amino]cyclohexyl}methyl)carbamate]
4270 nM | > 20000 nM | Cc1nc(-c2cccc(S(=O)(=O)NC[C@H]3CC[C@H](CNC(=O)OC(C)(C)C)CC3)c2)no1 [Example 75, tert-Butyl ({trans-4-[({[3-(5-methyl-1,2,4-oxadiazol-3-yl)phenyl]sulfonyl}amino)-methyl]cyclohexyl}methyl)carbamate]
80 nM | 380 nM | CC(C)(C)OC(=O)NC[C@H]1CC[C@H](CNC(=O)c2cc(-c3ccc(S(N)(=O)=O)cc3)nc3ccccc23)CC1 [Example 135, tert-Butyl [(trans-4-{[({2-[4-(aminosulfonyl)phenyl]-quinolin-4-yl}carbonyl)amino]-methyl}-cyclohexyl)methyl]-carbamate]
9850 nM | 14100 nM | COc1ccc(-c2cc(C(=O)NC[C@H]3CC[C@H](CNC(=O)OC(C)(C)C)CC3)ccn2)c(OC)c1 [Example 47, tert-Butyl {[trans-4-({[2-(2,4-dimethoxyphenyl)isonicotinoyl]amino}methyl)cyclohexyl]methyl}carbamate]
400 nM | 1210 nM | O=C(NC[C@H]1CC[C@H](CNC(=O)c2cc(-c3ccncc3)nc3ccccc23)CC1)OC1CCCC1 [Example 56, Cyclopentyl {[trans-4-({[(2-pyridin-4-ylquinolin-4-yl)carbonyl]amino}methyl)cyclo-hexyl]methyl}carbamate]
680 nM | 3410 nM | CNS(=O)(=O)c1ccc(-c2cc(C(=O)NC[C@H]3CC[C@H](CNC(=O)O[C@H]4CCOC4)CC3)c3ccccc3n2)cc1 [Example 137, (3S)-Tetrahydrofuran-3-yl{[trans-4-({[(2-{4-[(methylamino)sulfonyl]phenyl}quinolin-4-yl)carbonyl]amino}methyl)cyclohexyl]methyl}-carbamate]
9080 nM | > 20000 nM | CC(C)(C)OC(=O)NC[C@H]1CC[C@H](CNC(=O)c2ccnc(-c3ccc(F)c(F)c3)c2)CC1 [Example 53, tert-Butyl {[trans-4-({[2-(3,4-difluorophenyl)isonicotinoyl]amino}methyl)cyclohexyl]-methyl}carbamate]
1060 nM | 6910 nM | CN1CCN(CCCOc2cc(C(=O)NC[C@H]3CC[C@H](CNC(=O)OC(C)(C)C)CC3)c3ccccc3n2)CC1 [Example 180, tert-Butyl [(trans-4-{[({2-[3-(4-methylpiperazin-1-yl)propoxy]quinolin-4-yl}carbonyl)amino]methyl}cyclohexyl)methyl]carbamate]
100 nM | 780 nM | CC(C)(C)OC(=O)NC[C@H]1CC[C@H](CNC(=O)c2cc(-c3cccc(CNC(N)=O)c3)nc3ccccc23)CC1 [Example 99, tert-Butyl {[trans-4-({[(2-{3-[(carbamoylamino)methyl]phenyl}quinolin-4-yl)-carbonyl]amino}methyl)cyclohexyl]methyl}carbamate]
6690 nM | > 20000 nM | CCCCN(C[C@H]1CC[C@H](CNC(=O)OC(C)(C)C)CC1)S(=O)(=O)c1ccc2ccccc2c1 [Example 85, tert-Butyl [(trans-4-{[butyl(2-naphthylsulfonyl)amino]methyl}cyclohexyl)methyl]-carbamate]
980 nM | 2140 nM | CC(C)(C)OC(=O)NC[C@H]1CC[C@H](CNS(=O)(=O)c2cc(-c3ccccc3)nc3ccccc23)CC1 [Example 95, tert-Butyl {[trans-4-({[(2-phenylquinolin-4-yl)sulfonyl]amino}methyl)cyclohexyl]-methyl}carbamate]
40 nM | 250 nM | CC(C)(C)OC(=O)NC[C@H]1CC[C@H](CNC(=O)c2cc(-c3ccc(C(N)=O)cc3)nc3ccccc23)CC1 [Example 9, tert-butyl ({trans-4-[({[2-(4-carbamoylphenyl)quinolin-4-yl]carbonyl}amino)methyl]cyclohexyl}methyl)carbamate]
810 nM | 2100 nM | CCCOC(=O)NC[C@H]1CC[C@H](CNC(=O)c2cc(-c3ccncc3)nc3ccccc23)CC1 [Example 58, Propyl {[trans-4-({[(2-pyridin-4-ylquinolin-4-yl)carbonyl]amino}methyl)cyclohexyl]-methyl}carbamate]
4760 nM |  | CC(C)(C)OC(=O)NC[C@H]1CC[C@H](CNS(=O)(=O)c2ccc3c(c2)OCCO3)CC1 [Example 69, tert-Butyl [(trans-4-{[(2,3-dihydro-1,4-benzodioxin-6-ylsulfonyl)amino]methyl}cyclo-hexyl)methyl]carbamate]

Compound | IC50 [1] | IC50 [2]
CC(C)(C)OC(=O)NC[C@H]1CC[C@H](CNC(=O)c2cc(-c3ccc(CC(=O)O)cc3)nc3ccccc23)CC1 [Example 107, [4-(4-{[(trans-4-{[(tert-Butoxycarbonyl)amino]methyl}cyclohexyl)methyl]-carbamoyl}quinolin-2-yl)phenyl]acetic Acid] | 210 nM | 2620 nM
COC(=O)NCc1ccc(-c2cc(C(=O)NC[C@H]3CC[C@H](CNC(=O)OC(C)(C)C)CC3)c3ccccc3n2)cc1 [Example 104, Methyl [4-(4-{[(trans-4-{[(tert-butoxycarbonyl)amino]methyl}cyclohexyl)methyl]-carbamoyl}quinolin-2-yl)benzyl]carbamate] | 110 nM | 1600 nM
